Experimental data reported in patent US20230149919A1, “CASSETTE FOR PRESERVATION OF NATURAL AND BIOENGINEERED TISSUES” (TISSUE TESTING TECHNOLOGIES LLC, priority 2021, published 2023).

Tested on: Epiderm construct
Test: Viability of constructs with additives in culture medium before and after vitrification
Assay type: cell-based, Human
Conditions: added to culture medium before and after vitrification, αT and QVD together
Procedure: Resazurin Assay: Was used to measure the metabolic activity and has the advantage of being non-toxic so constructs can be assessed before and several times after treatment. Resazurin dye (alamarBlue) was used to assess cell viability by measuring the oxidation/reduction reactions that take place within cells. The dye is added directly to the culture wells and the plates were incubated for 3 hours at 37° C. Upon reduction, the dye changes color and this was measured and quantified using a fluorescent microplate reader at an excitation wavelength of 544 nm and an emission wavelength of 590 nm.
The initial vitrification protocol was one that was developed for use with vein segments and rings. The process uses a 6 step (15-minute incubation) protocol to add the cryoprotectant (CPA) solution into the construct. The insert is then left in a glass scintillation vial in 1.5 mL vitrification solution with 0.3 mL solution inside the insert. The vials are cooled rapidly to −100° C. then slowly cooled to −135° C. where they are stored until rewarming. During rewarming, the samples are warmed slowly to −100° C. then rapidly to room temperature. The vitrification solution is removed using 7 sequential removal steps at 15 minutes each (FIG. 4, original protocol). Several changes were made to this protocol to produce better and sustainable viability for the Epiderm construct.
A series of changes were made to how the vitrification solution was loaded and unloaded from the construct. These changes included shorter incubation steps (5 minutes instead of 15), using a lower concentration of cryoprotectant to load the full-strength vitrification solution into the construct and also a more mechanical change that involved dilution of the full strength vitrification solution to half its concentration by a simple dilution step as opposed to removal from one solution to the next. This shortened the amount of time that the construct was exposed to the full-strength vitrification solution reducing potential cytotoxicity caused by exposure to the vitrification solution (modified protocol).
The arrived at protocol starts with an overnight incubation with αT and QVD. The next day, the constructs are vitrified using the 6-step addition protocol, 5 minutes each step, to add the cryoprotectant (CPA) solution into the construct. The insert is then left in the final vitrification solution with 0.3 mL solution inside the insert. The vials are cooled rapidly to −100° C. then slowly cooled to −135° C. where they are stored until rewarming. During rewarming, the samples are warmed slowly to −100° C. then rapidly to room temperature. The vitrification solution is removed using 7 sequential removal steps at 5 minutes each. […]

| SMILES | Effect of additive on construct viability | Effect of additive on construct viability (listed as αT) | Effect of additive on construct viability (listed as QVD) |
| --- | --- | --- | --- |
| Cc1c(C)c2c(c(C)c1O)CC[C@@](C)(CCC[C@H](C)CCC[C@H](C)CCCC(C)C)O2 [α-tocopherol] | improved viability | significant improvement |  |
| CC(C)[C@H](NC(=O)c1ccc2ccccc2n1)C(=O)N[C@@H](CC(=O)O)C(=O)COc1c(F)cccc1F [Q-VD-OPH, quinoline-Val-Asp-difluorophenoxymethyl ketone] | improved viability |  | significant improvement |
